{"source": "paper PMC6627331", "about": "“Identification of Small Molecule Inhibitors of Staphylococcus aureus RnpA” (Antibiotics, 2019)", "key": {"[1]": {"molecular_target": "T1, S. aureus RNase P (RnpA + rnpB) (Staphylococcus aureus, UniProt P0A0H5)", "T1 construct": "hexahistidine (His6) (N); made in house; host or cells: E. coli BL21 (DE3), plasmid pEXP5-nt", "T1 sequence (P0A0H5 1-117)": "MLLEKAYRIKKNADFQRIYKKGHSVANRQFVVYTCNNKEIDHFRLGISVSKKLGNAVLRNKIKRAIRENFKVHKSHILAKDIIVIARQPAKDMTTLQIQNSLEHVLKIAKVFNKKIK", "assay": "RnpA-dependent RNase P in vitro ptRNA^Tyr processing assay", "format": "biochemical", "settings": "in vitro ptRNA^Tyr processing; read-out: Processing IC50", "protocol": "S. aureus RNase P activity assays were performed according to conditions described previously. Briefly, ptRNA^Tyr and rnpB RNA species were first denatured by heating to 95 °C for 5 min then slow cooled to room temperature. RNase P was reconstituted by mixing an equal molar ratio of rnpB and RnpA for 15 min at 37 °C. Precursor tRNA processing inhibition reactions were performed by mixing 1.25 pmol of reconstituted RNase P (RnpA + rnpB) with an equal volume of 2× low salt buffer (50 mM Tris-HCl pH 8.0, 5 mM MgCl2) in the presence of DMSO (negative control) or the indicated compound (≤500 µM) and incubated for 5 min at 37 °C. 5 pmol ptRNA^Tyr was added and the mixture was incubated at 37 °C 15 min. Reactions were stopped by adding 2× RNA loading dye and heating at 65 °C for 10 min. Each sample was electrophoresed in a 7 M urea/8% polyacrylamide gel then stained with ethidium bromide. The Biorad EZ Gel Doc imaging system was used to visualize the RNA and relative abundance of the mature tRNA^Tyr band (% processing) in the negative control or in samples containing the indicated compounds and analyzed using Biorad Image Lab densitometry software. The inhibitory activity of the indicated compounds were calculated as a % inhibition using the following equation: […].\nTo assess IC50, % RNase P processing inhibition was plotted against compound concentration and a linear best fit equation was generated to calculate the IC50."}, "[2]": {"system": "S. aureus RN4220 pML100::rnpA-KD", "assay": "Cellular RnpA depletion hypersusceptibility growth curve", "format": "cell-based, Staphylococcus aureus", "settings": "[…] MIC JC2 or 0.5× MIC RNPA2000", "protocol": "100 μL of each culture was transferred to a 96 well flat bottom plate in duplicate and growth monitored by OD600 reading every 30 min over 8 h at 37 °C. Hypersusceptibility growth curves were averaged from two biological replicates in technical duplicate."}}, "data": [{"molecule": "CC1CCCCN1C(=O)Nc1cc(Cl)cc(Cl)c1", "note": "(centres unmarked) [JC2]", "values": [{"measurement": "IC50", "setting": "[1]", "value": 200, "unit": "µM"}, {"measurement": "growth of RnpA-depleted cells (RnpA-KD) versus vector cells", "setting": "[2]", "value": "displayed a growth defect"}]}]}
